Here are results for 27 compounds from patent US20260327221A1, “INHIBITORS OF CYCLIC GMP-AMP SYNTHASE AND USES THEREOF” (Ventus Therapeutics U.S., Inc., priority 2023, published 2026).

This assay addresses hcGAS (Homo sapiens, UniProt Q8N884). The assay can be described thus: hcGAS LCMS assay (direct measurement of cGAMP production by LC/MS). The format is biochemical. The settings on record: 4 h incubation with enzyme and substrates; cGAMP production by LC/MS; class symbols; read-out: hcGAS LCMS IC50. The protocol:
cGAS catalyzes the cyclization of ATP and GTP to produce cGAMP, which is the activating ligand of STING. Human cGAS (hcGAS) inhibition can thus be quantified by measuring how much cGAMP is formed either indirectly, by monitoring ATP-depletion as in the hcGAS Kinase-Glo assay (as described below), or directly, such as using the hcGAS LCMS assay (as described below).
2. hGAS LCMS Assay Conditions
Compounds were tested for their hcGAS inhibition activity using direct measurement of cGAMP production by LC/MS. Briefly, compounds were incubated with enzyme and substrates for 4 hours (see Table C), before the reaction was stopped with 3 volumes of 70/30 Acetonitrile/H2O mix containing 0.15 uM cGAMP-^13C10^15N5 as internal standard and mixed for 5 mmn. After centrifugation (3700 rpm, […], […]), 100 uL of each reaction was collected and mixed to equal volume of acetonitrile (MeCN). Samples were then analyzed on Qexactive (Column: XBridge BEH Amide Column, 130 Å, 3.5 μm, 3 mm×50 mm. Mobile phase A: 10 mM Ammonium acetate in 95/5 H2O/MeCN (0.5% DMSO), Mobile phase B: MeCN (0.5% DMSO).
The results of the assay, expressed as IC50 values, are reported in Table D with the following designations: A represents an IC50 value <0.005 μM (with A1 representing an IC50 value <0.0005 μM, A2 representing an IC50 value ≥0.0005 μM and <0.001 μM, and A3 representing an IC50 value ≥0.001 μM and <0.005 μM); B represents an IC50 value ≥0.005 μM and <0.02 μM; C represents an IC50 value ≥0.02 μM and <0.06 μM; and D represents an IC50 value ≥0.06 μM.

hcGAS, sequence (Q8N884 whole entry): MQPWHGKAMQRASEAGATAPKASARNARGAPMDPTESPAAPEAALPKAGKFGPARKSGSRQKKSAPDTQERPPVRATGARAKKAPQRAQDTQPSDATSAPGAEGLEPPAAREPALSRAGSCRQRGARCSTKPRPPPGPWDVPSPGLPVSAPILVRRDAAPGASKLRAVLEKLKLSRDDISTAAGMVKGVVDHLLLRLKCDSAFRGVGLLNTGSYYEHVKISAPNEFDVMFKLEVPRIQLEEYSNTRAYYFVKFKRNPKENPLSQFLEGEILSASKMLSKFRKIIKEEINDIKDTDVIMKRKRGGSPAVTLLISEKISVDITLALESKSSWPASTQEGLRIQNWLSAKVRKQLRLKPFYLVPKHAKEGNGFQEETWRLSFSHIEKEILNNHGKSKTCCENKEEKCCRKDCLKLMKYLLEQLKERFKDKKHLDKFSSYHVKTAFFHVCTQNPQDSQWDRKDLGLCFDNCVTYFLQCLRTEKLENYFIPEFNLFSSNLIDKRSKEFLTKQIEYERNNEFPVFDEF

Broadly, the IC50 is the point on the concentration scale where inhibition reaches its midpoint. In the case of `COc1cccc(OC)c1-c1cc(C(=O)Nc2nnc(-n3nccc3N)s2)oc(=O)c1O[C@@H](CO)CN1CCSCC1` [81B*, (R)-N-(5-(5-amino-1H-pyrazol-1-yl)-1,3,4-thiadiazol-2-yl)-4-(2,6-dimethoxyphenyl)-3-((1-hydroxy-3-thiomorpholinopropan-2-yl)oxy)-2-oxo-2H-pyran-6-carboxamide], the IC50 fell in the range of 1 to 5 nM.

As to `COc1cccc(OC)c1-c1cc(C(=O)Nc2nnc(-n3nccc3N)s2)oc(=O)c1OCCN1CCCSCC1` [Compound 89, 3-(2-(1,4-thiazepan-4-yl)ethoxy)-N-(5-(5-amino-1H-pyrazol-1-yl)-1,3,4-thiadiazol-2-yl)-4-(2,6-dimethoxyphenyl)-2-oxo-2H-pyran-6-carboxamide], the IC50 lay within 0.5 to 1 nM.

Consider `COc1cccc(OC)c1-c1cc(C(=O)Nc2nnc(-n3nccc3N)s2)oc(=O)c1O[C@H]1CC[C@H](O)CC1` [Compound 108A, N-(5-(5-amino-1H-pyrazol-1-yl)-1,3,4-thiadiazol-2-yl)-4-(2,6-dimethoxyphenyl)-3-(((1r,4r)-4-hydroxycyclohexyl)oxy)-2-oxo-2H-pyran-6-carboxamide], for which the concentration for half-maximal inhibition (IC50) was below 0.5 nM.

Turning to `COc1cccnc1-c1cc(C(=O)Nc2nnc(-n3nccc3N)s2)oc(=O)c1OCC(C)(C)CO` [Compound 33, N-(5-(5-amino-1H-pyrazol-1-yl)-1,3,4-thiadiazol-2-yl)-3-(3-hydroxy-2,2-dimethylpropoxy)-4-(3-methoxypyridin-2-yl)-2-oxo-2H-pyran-6-carboxamide], the 50% inhibitory concentration (IC50) was in the range of 1 to 5 nM.

On to `COc1cccc(OC)c1-c1cc(C(=O)Nc2nnc(-n3nccc3N)s2)oc(=O)c1O[C@@H]1CC[C@@H](O)C1` (relative stereo) [64A*/B*], for which the IC50 is 0.5 to 1 nM.

Turning to `COc1c(-c2ccccc2P(C)(C)=O)cc(C(=O)Nc2nnc(-n3nccc3C)s2)oc1=O` [Compound 3, 4-(2-(dimethylphosphoryl)phenyl)-3-methoxy-N-(5-(5-methyl-1H-pyrazol-1-yl)-1,3,4-thiadiazol-2-yl)-2-oxo-2H-pyran-6-carboxamide], the IC50 was 20 to 60 nM.

In the case of `COc1cccc(OC)c1-c1cc(C(=O)Nc2nnc(-n3nccc3N)s2)oc(=O)c1OCCN1CC2(CSC2)C1` [Compound 65, 3-(2-(2-thia-6-azaspiro[3.3]heptan-6-yl)ethoxy)-N-(5-(5-amino-1H-pyrazol-1-yl)-1,3,4-thiadiazol-2-yl)-4-(2,6-dimethoxyphenyl)-2-oxo-2H-pyran-6-carboxamide], the IC50 lay within 0.5 to 1 nM.

As for `COCCOc1c(-c2c(C)cccc2C#N)cc(C(=O)Nc2nnc(-n3nccc3N)s2)oc1=O` (single isomer, unassigned) [Compound 24B*, (Sa)-N-(5-(5-amino-1H-pyrazol-1-yl)-1,3,4-thiadiazol-2-yl)-4-(2-cyano-6-methylphenyl)-3-(2-methoxyethoxy)-2-oxo-2H-pyran-6-carboxamide], the IC50 is below 0.5 nM.

On to `COc1cccc(OC)c1-c1cc(C(=O)Nc2nnc(-n3nccc3N)s2)oc(=O)c1OCCN1CC2(CCS2)C1` [Compound 72, 3-(2-(1-thia-6-azaspiro[3.3]heptan-6-yl)ethoxy)-N-(5-(5-amino-1H-pyrazol-1-yl)-1,3,4-thiadiazol-2-yl)-4-(2,6-dimethoxyphenyl)-2-oxo-2H-pyran-6-carboxamide], for which the IC50 lay within 0.5 to 1 nM.

In the case of `COc1cccnc1-c1cc(C(=O)Nc2nnc(-n3nccc3N)s2)oc(=O)c1O[C@H]1CC[C@H](O)C1` (single isomer, unassigned) [112B*], the IC50 was 1 to 5 nM.

As for `COc1cccc(C#N)c1-c1cc(C(=O)Nc2nnc(-n3nccc3Cl)s2)oc(=O)c1OCCO` [Compound 26, N-(5-(5-chloro-1H-pyrazol-1-yl)-1,3,4-thiadiazol-2-yl)-4-(2-cyano-6-methoxyphenyl)-3-(2-hydroxyethoxy)-2-oxo-2H-pyran-6-carboxamide], the IC50 was below 0.5 nM.

Consider `COCCOc1c(-c2c(OC)cccc2OC)cc(C(=O)Nc2nnc(-c3c(Cl)ccn3C)s2)oc1=O` [Compound 5, N-(5-(3-chloro-1-methyl-1H-pyrrol-2-yl)-1,3,4-thiadiazol-2-yl)-4-(2,6-dimethoxyphenyl)-3-(2-methoxyethoxy)-2-oxo-2H-pyran-6-carboxamide], for which the IC50 was below 0.5 nM.

In the case of `COc1cccc(OC)c1-c1cc(C(=O)Nc2nnc(-n3nccc3N)s2)oc(=O)c1O[C@@H]1CC[C@H](O)C1` (relative stereo) [64C*/D*], the IC50 lay in the range of 0.5 to 1 nM.

For the compound `COCCOc1c(-c2ncccc2C#N)cc(C(=O)Nc2nnc(-n3nccc3C)s2)oc1=O` [Compound 7, 4-(3-cyanopyridin-2-yl)-3-(2-methoxyethoxy)-N-(5-(5-methyl-1H-pyrazol-1-yl)-1,3,4-thiadiazol-2-yl)-2-oxo-2H-pyran-6-carboxamide], the IC50 is 1 to 5 nM.

Turning to `COCC(CN1CCSCC1)Oc1c(-c2c(OC)cccc2OC)cc(C(=O)Nc2nnc(-n3nccc3N)s2)oc1=O` (stereo not drawn) [78A*/78B*], the half-maximal inhibitory concentration (IC50) lay in the range of 5 to 20 nM.

In the case of `COc1cccc(OC)c1-c1cc(C(=O)Nc2nnc(-n3nccc3N)s2)oc(=O)c1OCCOCCO` [Compound 68, N-(5-(5-amino-1H-pyrazol-1-yl)-1,3,4-thiadiazol-2-yl)-4-(2,6-dimethoxyphenyl)-3-(2-(2-hydroxyethoxy)ethoxy)-2-oxo-2H-pyran-6-carboxamide], the IC50 is below 0.5 nM.

With `COc1cccc(OC)c1-c1cc(C(=O)Nc2nnc(-n3nccc3N)s2)oc(=O)c1O[C@H]1CCC[C@@H]1O` (single isomer, unassigned) [71A*], the half-maximal inhibitory concentration (IC50) fell in the range of 0.5 to 1 nM.

Consider `COCCOc1c(-c2ncccc2OC)cc(C(=O)Nc2nnc(-n3nccc3N)s2)oc1=O` [Compound 10, N-(5-(5-amino-1H-pyrazol-1-yl)-1,3,4-thiadiazol-2-yl)-3-(2-methoxyethoxy)-4-(3-methoxypyridin-2-yl)-2-oxo-2H-pyran-6-carboxamide], for which the IC50 lay in the range of 1 to 5 nM.

In the case of `COCCOc1c(-c2c(F)cccc2OC)cc(C(=O)Nc2nnc(-n3nccc3N)s2)oc1=O` [Compound 13, N-(5-(5-amino-1H-pyrazol-1-yl)-1,3,4-thiadiazol-2-yl)-4-(2-fluoro-6-methoxyphenyl)-3-(2-methoxyethoxy)-2-oxo-2H-pyran-6-carboxamide], the IC50 lay within 0.5 to 1 nM.

For the compound `COc1cccc(OC)c1-c1cc(C(=O)Nc2nnc(-n3nccc3N)s2)oc(=O)c1OCCO` [Compound 17, N-(5-(5-amino-1H-pyrazol-1-yl)-1,3,4-thiadiazol-2-yl)-4-(2,6-dimethoxyphenyl)-3-(2-hydroxyethoxy)-2-oxo-2H-pyran-6-carboxamide], the IC50 was below 0.5 nM.

On to `COc1cccc(OC)c1-c1cc(C(=O)Nc2nnc(-n3nccc3N)s2)oc(=O)c1OCC1(OC)CCC(O)CC1` (stereo not drawn) [99A*/99B*], for which the IC50 is 1 to 5 nM.

With `COc1cccc(OC)c1-c1cc(C(=O)Nc2nnc(-n3nccc3N)s2)oc(=O)c1OC1CC(O)C1` (single isomer, unassigned) [Compound 57B, N-(5-(5-amino-1H-pyrazol-1-yl)-1,3,4-thiadiazol-2-yl)-4-(2,6-dimethoxyphenyl)-3-((1,3-cis)-3-hydroxycyclobutoxy)-2-oxo-2H-pyran-6-carboxamide], the IC50 was below 0.5 nM.

In the case of `COc1cccc(OC)c1-c1cc(C(=O)Nc2nnc(-n3nccc3N)s2)oc(=O)c1OCCCO` [Compound 40, N-(5-(5-amino-1H-pyrazol-1-yl)-1,3,4-thiadiazol-2-yl)-4-(2,6-dimethoxyphenyl)-3-(3-hydroxypropoxy)-2-oxo-2H-pyran-6-carboxamide], the IC50 lay within 0.5 to 1 nM.

On to `COCCOc1c(-c2ncccc2OC)cc(C(=O)Nc2nnc(-n3nccc3C)s2)oc1=O` [Compound 4, 3-(2-methoxyethoxy)-4-(3-methoxypyridin-2-yl)-N-(5-(5-methyl-1H-pyrazol-1-yl)-1,3,4-thiadiazol-2-yl)-2-oxo-2H-pyran-6-carboxamide], for which the IC50 lay within 5 to 20 nM.

With `COc1cccc(OC)c1-c1cc(C(=O)Nc2nnc(-n3nccc3N)s2)oc(=O)c1O[C@@H]1CCOC1` [52B*, (R)-N-(5-(5-amino-1H-pyrazol-1-yl)-1,3,4-thiadiazol-2-yl)-4-(2,6-dimethoxyphenyl)-2-oxo-3-((tetrahydrofuran-3-yl)oxy)-2H-pyran-6-carboxamide], the IC50 is 0.5 to 1 nM.

Turning to `COCCOc1c(-c2c(C#N)cccc2OC)cc(C(=O)Nc2nnc(-n3nccc3N)s2)oc1=O` [Compound 8, N-(5-(5-amino-1H-pyrazol-1-yl)-1,3,4-thiadiazol-2-yl)-4-(2-cyano-6-methoxyphenyl)-3-(2-methoxyethoxy)-2-oxo-2H-pyran-6-carboxamide], the IC50 was in the range of 0.5 to 1 nM.

As for `COc1cccc(OC)c1-c1cc(C(=O)Nc2nnc(-n3nccc3N)s2)oc(=O)c1OC1CC(O)C1` (single isomer, unassigned) [Compound 57A, N-(5-(5-amino-1H-pyrazol-1-yl)-1,3,4-thiadiazol-2-yl)-4-(2,6-dimethoxyphenyl)-3-((1,3-trans)-3-hydroxycyclobutoxy)-2-oxo-2H-pyran-6-carboxamide], the IC50 fell in the range of 0.5 to 1 nM.
